Laboratory results taken from US12479843B2, “Spiro ring-containing quinazoline compounds” (WIGEN BIOMEDICINE TECHNOLOGY (SHANGHAI) CO., LTD., priority 2019, dated 2025).

System: H358 cells
Test: Antiproliferative activity against H358 cells (Cell Titer Glow, ultra-low attachment plate)
Format: cell-based
Details: Homo sapiens, NCI-H358, 72 h, 96-well ultra-low attachment plate, three days after addition of compound, Cell Titer Glow
Experimental: 2500 H358 cells were seeded in a 96-well ultra-low attachment plate (corning, 7007). After one day of growth, a serially diluted compound (a maximum concentration of 5 μM, 5-fold dilution, a total of five doses) was added. Three days after the addition of the compound, Cell Titer Glow (Promega, G9681) was added to evaluate pellet growth, and the IC50 value was calculated.

| SMILES | IC50 [nM] |
| --- | --- |
| C=CC(=O)N1CC2(CCN(c3nc(OC4CCN(CCOC)CC4)nc4c(OCC(F)(F)F)c(-c5c(C)ccc6nc[nH]c(=O)c56)c(C5CC5)cc34)CC2)C1 [Compound 43] | < 300 |
| C=C(F)C(=O)N1CC2(CCN(c3nc(OC4CC5(C4)CN(C)C5)nc4c(OCC(F)(F)F)c(-c5c(C)ccc6[nH]ncc56)c(C5CC5)cc34)CC2)C1 [Compound 124] | < 300 |
| C=C(F)C(=O)N1CC2(CCN(c3nc(OC4CC5(C4)CN(CCOC)C5)nc4c(OCC(F)(F)F)c(-c5c(C)ccc6[nH]ncc56)c(C5CC5)cc34)CC2)C1 [Compound 126] | < 300 |
| C=C(F)C(=O)N1CC2(CCN(c3nc(OC4CN(C5COC5)C4)nc4c(OCC(F)(F)F)c(-c5c(C)ccc6[nH]ncc56)c(C5CC5)cc34)CC2)C1 [Compound 112] | 300 to 1000 |
| C=C(F)C(=O)N1CC2(CCN(c3nc(N4CC(N(C)C)C4)nc4c(OCC(F)(F)F)c(-c5c(C)ccc6[nH]ncc56)c(C5CC5)cc34)CC2)C1 [Compound 139] | < 300 |
| C=CC(=O)N1CC2(CCN(c3nc(OC4CCN(CCOC)CC4)nc4c(OCC(F)(F)F)c(-c5c(C)ccc6[nH]ncc56)c(C)cc34)CC2)C1 [Compound 13] | 300 to 1000 |
| C=CC(=O)N1CC2(CCN(c3nc(OC4CCN(CCOC)CC4)nc4c(OCC(F)(F)F)c(-c5ccccc5F)c(C5CC5)cc34)CC2)C1 [Compound 51] | < 300 |

Further lines, results first:

| IC50 [nM] | SMILES |
| --- | --- |
| < 300 | C=CC(=O)N1CC2(CCN(c3nc(N4CC(N(C)CCOC)C4)nc4c(OCC(F)(F)F)c(-c5c(C)ccc6[nH]ncc56)c(C5CC5)cc34)CC2)C1 [Compound 140] |
| < 300 | C=CC(=O)N1CC2(CCN(c3nc(N4CC(N5CC[C@H](C)C5)C4)nc4c(OCC)c(-c5c(C)ccc6[nH]ncc56)c(C5CC5)cc34)CC2)C1 [Compound 330] |
| < 300 | C=CC(=O)N1CC2(CCN(c3nc(N4CC(N5C[C@@H](F)[C@@H](F)C5)C4)nc4c(OCC(F)(F)F)c(-c5c(C)ccc6[nH]ncc56)c(C5CC5)cc34)CC2)C1 [Compound 267] |
| 300 to 1000 | C=CC(=O)N1CC2(CCN(c3nc(N4CC[C@H](N5CCC(F)(F)C5)C4)nc4c(OCC(F)(F)F)c(-c5c(C)ccc6[nH]ncc56)c(C5CC5)cc34)CC2)C1 [Compound 199] |
| < 300 | C=CC(=O)N1CC2(CCN(c3nc(N4CC[C@H](N5CC[C@@H](F)C5)C4)nc4c(OCC(F)(F)F)c(-c5c(C)ccc6[nH]ncc56)c(C5CC5)cc34)CC2)C1 [Compound 193] |
| < 300 | C=CC(=O)N1CC2(CCN(c3nc(N4CC(N5CC[C@H](C)C5)C4)nc4c(OCC(F)(F)F)c(-c5c(C)ccc6[nH]ncc56)c(C5CC5)cc34)CC2)C1 [Compound 247] |
| < 300 | C=CC(=O)N1CC2(CCN(c3nc(N4CC(N5C[C@H](OC)[C@@H](F)C5)C4)nc4c(OCC(F)(F)F)c(-c5c(C)ccc6[nH]ncc56)c(C5CC5)cc34)CC2)C1 [Compound 263] |
| < 300 | C=C(F)C(=O)N1CC2(CCN(c3nc(N4CC(N5CCC5)C4)nc4c(OCC(F)(F)F)c(-c5c(C)ccc6[nH]ncc56)c(C5CC5)cc34)CC2)C1 [Compound 143] |
| < 300 | C=CC(=O)N1CC2(CCN(c3nc(N4CC5(CN(CCOC)C5)C4)nc4c(OCC(F)(F)F)c(-c5c(C)ccc6[nH]ncc56)c(C5CC5)cc34)CC2)C1 [Compound 71] |

System: pERK level in H358 cells
Test: pERK and ERK protein content assay in H358 cells (ELISA)
Format: cell-based
Details: Homo sapiens, NCI-H358, compound 1 μM, 24 h, pERK/ERK ratio compared with DMSO group, read-out: Inhibition rate (%) of pERK level
Experimental: H358 cells were seeded in a 24-well plate. After one day of growth, a test compound (at a concentration of 1 μM) was added. After 24 h of action of the compound, the cells were lysed, and the cell lysate was transferred to a 96-well ELISA plate. The levels of pERK and ERK in the lysate were measured using an ELISA kit (abcam 176660). The ratio of pERK to ERK was calculated and compared with that of the DMSO group, and the percentage of inhibition of pERK activity by the compound was calculated.

| SMILES | inhibition at 1 µM [%] |
| --- | --- |
| C=CC(=O)N1CC2(CCN(c3nc(N4CC(N(C)CCOC)C4)nc4c(OCC(F)(F)F)c(-c5c(C)ccc6[nH]ncc56)c(C5CC5)cc34)CC2)C1 [Compound 140] | > 90 |
| C=CC(=O)N1CC2(CCN(c3nc(N4CC(N5CC[C@H](C)C5)C4)nc4c(OCC)c(-c5c(C)ccc6[nH]ncc56)c(C5CC5)cc34)CC2)C1 [Compound 330] | > 90 |
| C=CC(=O)N1CC2(CCN(c3nc(N4CC(N5C[C@@H](F)[C@@H](F)C5)C4)nc4c(OCC(F)(F)F)c(-c5c(C)ccc6[nH]ncc56)c(C5CC5)cc34)CC2)C1 [Compound 267] | > 90 |
| C=CC(=O)N1CC2(CCN(c3nc(N4CC[C@H](N5CCC(F)(F)C5)C4)nc4c(OCC(F)(F)F)c(-c5c(C)ccc6[nH]ncc56)c(C5CC5)cc34)CC2)C1 [Compound 199] | > 90 |
| C=CC(=O)N1CC2(CCN(c3nc(OC4CCN(CCOC)CC4)nc4c(OCC(F)(F)F)c(-c5c(C)ccc6nc[nH]c(=O)c56)c(C5CC5)cc34)CC2)C1 [Compound 43] | > 90 |
| C=CC(=O)N1CC2(CCN(c3nc(N4CC[C@H](N5CC[C@@H](F)C5)C4)nc4c(OCC(F)(F)F)c(-c5c(C)ccc6[nH]ncc56)c(C5CC5)cc34)CC2)C1 [Compound 193] | > 90 |
| C=CC(=O)N1CC2(CCN(c3nc(N4CC(N5CC[C@H](C)C5)C4)nc4c(OCC(F)(F)F)c(-c5c(C)ccc6[nH]ncc56)c(C5CC5)cc34)CC2)C1 [Compound 247] | > 90 |
| C=CC(=O)N1CC2(CCN(c3nc(N4CC(N5C[C@H](OC)[C@@H](F)C5)C4)nc4c(OCC(F)(F)F)c(-c5c(C)ccc6[nH]ncc56)c(C5CC5)cc34)CC2)C1 [Compound 263] | > 90 |
| C=C(F)C(=O)N1CC2(CCN(c3nc(OC4CC5(C4)CN(C)C5)nc4c(OCC(F)(F)F)c(-c5c(C)ccc6[nH]ncc56)c(C5CC5)cc34)CC2)C1 [Compound 124] | > 90 |
| C=C(F)C(=O)N1CC2(CCN(c3nc(N4CC(N5CCC5)C4)nc4c(OCC(F)(F)F)c(-c5c(C)ccc6[nH]ncc56)c(C5CC5)cc34)CC2)C1 [Compound 143] | > 90 |
| C=C(F)C(=O)N1CC2(CCN(c3nc(OC4CC5(C4)CN(CCOC)C5)nc4c(OCC(F)(F)F)c(-c5c(C)ccc6[nH]ncc56)c(C5CC5)cc34)CC2)C1 [Compound 126] | > 90 |
| C=C(F)C(=O)N1CC2(CCN(c3nc(OC4CN(C5COC5)C4)nc4c(OCC(F)(F)F)c(-c5c(C)ccc6[nH]ncc56)c(C5CC5)cc34)CC2)C1 [Compound 112] | 50 to 90 |
| C=CC(=O)N1CC2(CCN(c3nc(N4CC5(CN(CCOC)C5)C4)nc4c(OCC(F)(F)F)c(-c5c(C)ccc6[nH]ncc56)c(C5CC5)cc34)CC2)C1 [Compound 71] | > 90 |
| C=C(F)C(=O)N1CC2(CCN(c3nc(N4CC(N(C)C)C4)nc4c(OCC(F)(F)F)c(-c5c(C)ccc6[nH]ncc56)c(C5CC5)cc34)CC2)C1 [Compound 139] | > 90 |
| C=CC(=O)N1CC2(CCN(c3nc(OC4CCN(CCOC)CC4)nc4c(OCC(F)(F)F)c(-c5c(C)ccc6[nH]ncc56)c(C)cc34)CC2)C1 [Compound 13] | > 90 |
| C=CC(=O)N1CC2(CCN(c3nc(OC4CCN(CCOC)CC4)nc4c(OCC(F)(F)F)c(-c5ccccc5F)c(C5CC5)cc34)CC2)C1 [Compound 51] | > 90 |
